Data taken from patent US20250230193A1, “CYCLIC COMPOUND HAVING SELECTIVE KRAS INHIBITORY EFFECT ON HRAS AND NRAS” (CHUGAI SEIYAKU KABUSHIKI KAISHA, priority 2022, published 2025).

What was measured:
[1] = biological target: GDP-bound NRAS wild-type protein (Homo sapiens, UniProt P01111); assay: Binding to NRAS by surface plasmon resonance (SPR), Single Cycle Kinetics; conditions: SPR, GDP-bound NRAS wild-type vs GDP-bound KRAS wild-type
[2] = biological target: GDP-bound HRAS wild-type protein (Homo sapiens, UniProt P01112); assay: Binding to HRAS by surface plasmon resonance (SPR), Single Cycle Kinetics; conditions: SPR, GDP-bound HRAS wild-type vs GDP-bound KRAS wild-type
Sequence of GDP-bound HRAS wild-type protein (P01112 whole entry): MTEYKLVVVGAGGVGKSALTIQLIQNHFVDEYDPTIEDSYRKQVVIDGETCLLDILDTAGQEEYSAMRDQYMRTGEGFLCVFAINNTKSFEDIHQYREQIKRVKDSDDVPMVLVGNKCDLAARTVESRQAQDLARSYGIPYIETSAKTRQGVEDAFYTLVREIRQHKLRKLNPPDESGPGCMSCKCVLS

Sequence of GDP-bound NRAS wild-type protein (P01111 whole entry): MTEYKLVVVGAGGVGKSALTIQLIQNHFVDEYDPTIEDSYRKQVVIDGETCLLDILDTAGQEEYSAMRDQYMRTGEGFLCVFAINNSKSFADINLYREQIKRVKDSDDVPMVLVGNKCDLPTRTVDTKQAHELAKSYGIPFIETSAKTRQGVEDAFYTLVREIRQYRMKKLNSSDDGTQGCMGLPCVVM

Compound | NRAS/KRAS (ratio of KD value with respect to NRAS to KD value with respect to KRAS) [1] | HRAS/KRAS (ratio of KD value with respect to HRAS to KD value with respect to KRAS) [2]
CC[C@H](C)[C@@H]1NC(=O)[C@H](COC)N(C)C(=O)C[C@@H](C(=O)N(C)C)N(C)C(=O)[C@H](C2CCCC2)N(C)C(=O)C2(CC(C)(C)C2)NC(=O)[C@@H]2C[C@@H](C)CN2C(=O)[C@H](CCc2ccc(C(F)(F)F)c(OC)c2)NC(=O)CN(C)C(=O)[C@H](Cc2ccc(C)cc2)N2CC/C=C\C[C@@H](C2=O)N(C)C(=O)CN(C)C1=O [PP2387] | A (a compound having 10 or more and less than 20 is denoted as A) | A (a compound having 10 or more and less than 20 is denoted as A)
CCC[C@H]1C(=O)N[C@@H]([C@@H](C)CC)C(=O)N2C[C@@H](OC)C[C@H]2C(=O)N(C)[C@H]2C/C=C\CCN(C2=O)[C@@H](Cc2ccc(C)cc2)C(=O)N(C)CC(=O)N[C@@H](CCc2ccc(C(F)(F)F)c(OC)c2)C(=O)N2C[C@@H](C)C[C@H]2C(=O)NC2(CC(C)(C)C2)C(=O)N(C)[C@@H](C2CCCC2)C(=O)N(C)[C@H](C(=O)N(C)C)CC(=O)N1C [PP2388] | A (a compound having 10 or more and less than 20 is denoted as A) | B (a compound having 3 or more and less than 10 is denoted as B)
CCO[C@@H]1C[C@H]2C(=O)NC3(CC(C)(C)C3)C(=O)N(C)[C@@H](C3CCCC3)C(=O)N(C)[C@H](C(=O)N(C)C)CC(=O)N(C)[C@@H](COC)C(=O)N[C@@H]([C@@H](C)CC)C(=O)N(C)CC(=O)N(C)[C@H]3C/C=C\CCN(C3=O)[C@@H](Cc3ccc(C)cc3)C(=O)N(C)CC(=O)N[C@@H](CCc3ccc(C(F)(F)F)c(Cl)c3)C(=O)N2C1 [PP2389] | A (a compound having 10 or more and less than 20 is denoted as A) | B (a compound having 3 or more and less than 10 is denoted as B)
CC[C@H](C)[C@@H]1NC(=O)[C@H](COC)N(C)C(=O)C[C@@H](C(=O)N(C)C)N(C)C(=O)[C@H](C2CCCC2)N(C)C(=O)C2(CC(C)(C)C2)NC(=O)[C@@H]2C[C@H](C)CN2C(=O)[C@H](CCc2ccc(C(F)(F)F)c(OC)c2)NC(=O)CN(C)C(=O)[C@H](Cc2ccc(C)cc2)N2CC/C=C\C[C@@H](C2=O)N(C)C(=O)[C@@H]2C[C@H](OC)CN2C1=O [PP2390] | A (a compound having 10 or more and less than 20 is denoted as A) | B (a compound having 3 or more and less than 10 is denoted as B)
CCO[C@@H]1C[C@H]2C(=O)NC3(CC(C)(C)C3)C(=O)N(C)[C@@H](C3CCCC3)C(=O)N(C)[C@H](C(=O)N(C)C)CC(=O)N(C)[C@@H](COC)C(=O)N[C@@H]([C@@H](C)CC)C(=O)N(C)CC(=O)N(C)[C@H]3C/C=C\CCN(C3=O)[C@@H](Cc3ccc(C)cc3)C(=O)N(C)CC(=O)N[C@@H](CCc3cc(F)c(C(F)(F)F)c(F)c3)C(=O)N2C1 [PP2391] | A (a compound having 10 or more and less than 20 is denoted as A) | A (a compound having 10 or more and less than 20 is denoted as A)
CCO[C@@H]1C[C@H]2C(=O)NC3(CC(C)(C)C3)C(=O)N(C)[C@@H](C3CCCC3)C(=O)N(C)[C@H](C(=O)N(C)CC)CC(=O)N(C)[C@@H](COC)C(=O)N[C@@H]([C@@H](C)CC)C(=O)N(C)CC(=O)N(C)[C@H]3C/C=C\CCN(C3=O)[C@@H](Cc3ccc(C)cc3)C(=O)N(C)CC(=O)N[C@@H](CCc3ccc(C(F)(F)F)c(OC)c3)C(=O)N2C1 [PP2392] | A (a compound having 10 or more and less than 20 is denoted as A) | A (a compound having 10 or more and less than 20 is denoted as A)
CCOC[C@H]1C(=O)N[C@@H]([C@@H](C)CC)C(=O)N(C)CC(=O)N(C)[C@H]2C/C=C\CCN(C2=O)[C@@H](Cc2ccc(C)cc2)C(=O)N(C)CC(=O)N[C@@H](CCc2ccc(C(F)(F)F)c(OC)c2)C(=O)N2C[C@H](C)C[C@H]2C(=O)NC2(CC(C)(C)C2)C(=O)N(C)[C@@H](C2CCCC2)C(=O)N(C)[C@H](C(=O)N(C)C)CC(=O)N1C [PP2393] | A (a compound having 10 or more and less than 20 is denoted as A) | A (a compound having 10 or more and less than 20 is denoted as A)
CCOC[C@H]1C(=O)N[C@@H]([C@@H](C)CC)C(=O)N(C)CC(=O)N(C)[C@H]2C/C=C\CCN(C2=O)[C@@H](Cc2ccc(C)cc2)C(=O)N(C)CC(=O)N[C@@H](CCc2ccc(C(F)(F)F)c(Cl)c2)C(=O)N2C[C@@H](C)C[C@H]2C(=O)NC2(CC(C)(C)C2)C(=O)N(C)[C@@H](C2CCCC2)C(=O)N(C)[C@H](C(=O)N(C)C)CC(=O)N1C [PP2394] | A (a compound having 10 or more and less than 20 is denoted as A) | B (a compound having 3 or more and less than 10 is denoted as B)
CCOC[C@H]1C(=O)N[C@@H]([C@@H](C)CC)C(=O)N(C)CC(=O)N(C)[C@H]2C/C=C\CCN(C2=O)[C@@H](Cc2ccc(C)cc2)C(=O)N(C)CC(=O)N[C@@H](CCc2ccc(C(F)(F)F)c(Cl)c2)C(=O)N2C[C@H](OCC)C[C@H]2C(=O)NC2(CC(C)(C)C2)C(=O)N(C)[C@@H](C2CCCC2)C(=O)N(C)[C@H](C(=O)N(C)C)CC(=O)N1C [PP2395] | A (a compound having 10 or more and less than 20 is denoted as A) | B (a compound having 3 or more and less than 10 is denoted as B)
CCO[C@@H]1C[C@H]2C(=O)NC3(CC(C)(C)C3)C(=O)N(C)[C@@H](C3CCCC3)C(=O)N(C)[C@H](C(=O)N(C)CC)CC(=O)N(C)[C@@H](COC)C(=O)N[C@@H]([C@@H](C)CC)C(=O)N(C)CC(=O)N(C)[C@H]3C/C=C\CCN(C3=O)[C@@H](Cc3ccc(C)cc3)C(=O)N(C)CC(=O)N[C@@H](CCc3cc(F)c(C(F)(F)F)c(F)c3)C(=O)N2C1 [PP2396] | A (a compound having 10 or more and less than 20 is denoted as A) | A (a compound having 10 or more and less than 20 is denoted as A)
CCOC[C@H]1C(=O)N[C@@H]([C@@H](C)CC)C(=O)N(C)CC(=O)N(C)[C@H]2C/C=C\CCN(C2=O)[C@@H](Cc2ccc(C)cc2)C(=O)N(C)CC(=O)N[C@@H](CCc2cc(F)c(C(F)(F)F)c(F)c2)C(=O)N2C[C@H](OCC)C[C@H]2C(=O)NC2(CC(C)(C)C2)C(=O)N(C)[C@@H](C2CCCC2)C(=O)N(C)[C@H](C(=O)N(C)C)CC(=O)N1C [PP2397] | A (a compound having 10 or more and less than 20 is denoted as A) | A (a compound having 10 or more and less than 20 is denoted as A)
